Results on five molecules are retold here after patent publication US20250270216A1, “ANTI-INFECTIVE AGENTS” (UNIVERSITY OF DUNDEE, priority 2022, published 2025).

In one assay the test system is Cryptosporidium. To be noted: Cryptosporidium-HIV co-infected patients not co-treated with HIV antiretroviral therapy; cited from earlier work.
Assay [1] has as its target Cryptosporidium parvum lysyl t-RNA synthetase (Cp KRS) (Cryptosporidium parvum, UniProt Q5CR27). Briefly: In vitro inhibition of Cryptosporidium lysyl tRNA synthetase (KRS), Biomol green phosphate detection. Type of assay: biochemical. To be noted: 300 nM CpKRS, 500 μM ATP, 1.2 mM L-Lysine, 8 h room temperature; read-out: C. parvum KRS pIC50 (converted). The text has this: The protein expression and purification method for recombinant CpKRS was described in Baragana et aL, PNAS, 2019, 116 (4), 7015-7020 and will be summarised below.
The C. parvum KRS had 45 residues removed at the N-terminus. All amplicons were cloned into the pAVA0421 expression vector using the ligation independent cloning (LIC) method. Recombinant plasmids were transformed into Rosetta BL21(DE3) competent cells and plated on LB agar plates with ampicillin, carbenicillin, and chloramphenicol selection. Clones were expressed using previously reported autoinduction methods and scaled to 2-litre cultures in a shake flasks. Cell pellets were harvested and lysed with 100 mM HEPES/150 mM NaCl/5% Glycerol/20 mM imidazole/0.5 mM TCEP pH 7.5/DNase/Complete inhibitor tablets) using a Cell Disrupter (Constant Systems) at 30 KPSI and centrifuged at 40,000 g for 20 min remove cell debris. The supernatant was loaded onto a 5 ml HiTrap Ni HP column that had been equilibrated with Buffer A (100 mM HEPES/150 mM NaCl/5% Glycerol/20 mM imidazole/0.5 mM TCEP pH 7.5) at 5 ml/min using an AKTA Pure system. Once loaded the column was washed with 10 column volumes of buffer A. A 5% step of Buffer B (100 mM HEPES/150 mM NaCl/5% Glycerol/500 mM imidazole/0.5 mM TCEP pH 7.5) was then used to wash off His-rich contaminating proteins. A linear gradient of 5-50% B was used to elute the protein. Approximately 287 mg of protein was present in the fractions containing the CpKRS protein. The sample was then concentrated to approximately 30 ml, passed through a 0.2 μm filter, before loading onto a XK26/60 Superdex 200 column using an AKTA Pure system at 4° C. at 2 ml/min 10 ml at a time. The eluted protein was pooled then frozen at −80° C. The concentration of the protein was 1.3 mg/ml. Sometimes the protein was cleaved with PreScission protease overnight, a second Ni column performed in flow through mode to removed uncleaved protein. GST beads were then added to remove the PreScission Protease. The protein was then gel filtered as descripted above.
Assay Method for Measurement of In Vitro Inhibition of Cryptosporidium lysyl tRNA Synthetase (KRS)
Potency of compounds was determined in 10 points dose-response inhibition curves. Compounds were transferred into 384-well clear bottom plates (Greiner Bio-One, 781101) using an Echo 550 acoustic dispenser (Labcyte). Using an automatic liquid dispenser, 50 μL reaction mixes were prepared by adding 25 μL of substrate mix into all wells followed by the addition of 25 μL enzyme mix into compounds and no inhibition control wells (final reaction: 100 mM HEPES, pH 7.4, 20 mM MgCl2, 1 mM DTT, 500 μM ATP, 1.2 mM L-Lysine, 300 nM CpKRS and 0.5 U/mL Pyrophosphatase). Complete inhibition control reactions were performed in the absence of enzyme and the plates were incubated at room temperature for 8 h. Reactions were stopped by the addition of Biomol green (50 μL: Enzo Life Sciences) with the amount of free phosphate detected by measuring absorbance (650 nm) after 20 min further incubation (BMG Pherastar plate reader). Counter screen assays to eliminate direct inhibition of pyrophosphatase were performed using 0.5 U/mL pyrophosphatase and 3 μM pyrophosphate as substrate in the same assay buffer (100 mM HEPES, pH 7.4, 20 mM MgCl2, 1 mM DTT) for 8 hours at room temperature. Biomol green was added and incubated for 20 min before detection as above. Samples were run in duplicate and data was processed and analysed using ActivityBase (IDBS).

The target in assay [2] is T1, Human lysyl tRNA Synthetase (KRS) (Homo sapiens, UniProt Q15046).
T1 construct: His tag with PreScission site (His PP pET15b); made in house; host or cells: E. coli BL21 (DE3)
T1 sequence (Q15046 whole entry): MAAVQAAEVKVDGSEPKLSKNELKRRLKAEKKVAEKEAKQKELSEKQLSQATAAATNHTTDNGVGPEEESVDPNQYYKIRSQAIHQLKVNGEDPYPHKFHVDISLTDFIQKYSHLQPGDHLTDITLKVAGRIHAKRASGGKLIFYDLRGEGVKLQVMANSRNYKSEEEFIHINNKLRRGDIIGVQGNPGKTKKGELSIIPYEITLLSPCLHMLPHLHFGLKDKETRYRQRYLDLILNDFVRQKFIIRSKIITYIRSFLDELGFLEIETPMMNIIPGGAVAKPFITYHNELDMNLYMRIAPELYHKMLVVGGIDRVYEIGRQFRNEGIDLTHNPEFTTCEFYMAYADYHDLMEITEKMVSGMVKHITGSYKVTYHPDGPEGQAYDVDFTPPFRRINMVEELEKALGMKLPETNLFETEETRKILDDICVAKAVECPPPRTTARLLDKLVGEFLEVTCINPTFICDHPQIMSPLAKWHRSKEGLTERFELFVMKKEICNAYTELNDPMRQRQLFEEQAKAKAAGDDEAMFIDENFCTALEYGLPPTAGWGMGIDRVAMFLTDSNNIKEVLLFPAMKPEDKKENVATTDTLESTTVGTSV
Briefly: In vitro inhibition of human lysyl tRNA synthetase (KRS), Biomol green phosphate detection. Type of assay: biochemical. Conditions: 3.5 μM ATP, 6 μM L-Lysine, 5 h room temperature; read-out: Hs KRS pIC50 (converted). How it is done:
The gene coding for Human KRS, codon optimized for expression in E. coli, was obtained from Genscript and cloned into a His PP pET15b vector using Nde1 and Xho1 restriction sites. The resulting vector was used to transform BL21 (DE3) competent cells for protein expression. A 120 ml overnight culture was set up and grown at 37° C. 200 rpm for 16 h and used the next day to inoculate 6 litres of Autoinduction+AMP medium. This culture was grown at 37° C. for 4 h then 20° C. for 20 h. The cells were harvested by centrifugation at 3,500 g for 30 min then stored at −20° C. The resulting cell pellet was 50 g. Lysis buffer (150 ml, 25 mM HEPES/500 mM NaCl/20 mM imidazole/2 mM DTT/10% glycerol pH 7.5/protease inhibitor tablets/DNAase) was added and the pellets for defrosted at room temperature for approximately 10 min. The slurry was then passed through a Cell Disrupter (Constant Systems) set at […] to lyse the cells. The sample was then centrifuged at 40,000 g for 20 min. The supernatant was then filtered using syringe filters to 0.45 μm. The supernatant was loaded onto a 5 ml HiTrap Ni HP column that had been equilibrated with BufferA (25 mM HEPES/500 mM NaCl/20 mM Imidazole/2 mM DTT/10% Glycerol pH 7.5) at 5 ml/min using an AKTA Pure system. Once loaded the column was washed with 10 column volumes buffer A. A 5% step of Buffer B (25 mM HEPES/500 mM NaCl/500 mM Imidazole/2 mM DTT/10% Glycerol pH 7.5) was then used to wash off His rich contaminating proteins. A gradient of 5-50% B was used to elute the protein. Approximately 55 mg of protein was present in the fractions containing the HsKRS protein. The sample was then passed through a 0.2 μm filter, before loading onto a XK26/60 Superdex 200 column equilibrated with Buffer C (25 mM HEPES/150 mM NaCl/2 mM DTT/10% glycerol pH 7.0) using an AKTA Pure system at 4° C. at 2 ml/min. The sample was then dialyzed into 25 mM HEPES/500 mM NaCl//2 mM DTT/10% glycerol/0.25% azide pH 7.0. The protein was concentrated to 1 mg/ml and frozen at −80° C. Approximately 23 mg of protein was produced.
Assay Method for Measurement of In Vitro Inhibition of Human lysyl tRNA Synthetase (KRS)
Potency of compounds was determined in 10 points dose-response inhibition curves. Compounds were transferred into 384-well clear bottom plates (Greiner Bio-One, 781101) using an Echo 550 acoustic dispenser (Labcyte). Using an automatic liquid dispenser, 50 μL reaction mixes were prepared by adding 25 μL of substrate mix into all wells followed by the addition of 25 μL enzyme mix into all wells (final reaction: 30 mM Tris-HCl, pH 8.0, 40 mM MgCl2, 140 mM NaCl, 30 mM KCl, 0.01% Brij-35, 1 mM DTT, 3.5 μM ATP, 6 μM L-Lysine, 200 nM […] and 0.5 U/mL Pyrophosphatase). Complete inhibition control reactions were performed in the presence of 100 μM of control compoundand the plates were incubated at room temperature for 5 h. Reactions were stopped by the addition of Biomol green (50 μL: Enzo Life Sciences) with the amount of free phosphate detected by measuring absorbance (650 nm) after 20 min further incubation (BMG Pherastar plate reader). Counter screen assays to eliminate direct inhibition of pyrophsphatase were performed using 0.5 U/mL pyrophosphatase and 3 μM pyrophosphate as substrate in the same assay buffer (30 mM Tris-HCl, pH 8.0, 40 mM MgCl2, 140 mM NaCl, 30 mM KCl, 0.01% Brij-35, 1 mM DTT) for 5 hours at room temperature. Biomol green was added and incubated for 20 min before detection as above. Samples were run in duplicate and data was processed and analysed using ActivityBase (IDBS).

For assay [3], the system named is Hep G2 (Human hepatocyte carcinoma). As to the kind of experiment: In vitro inhibition of HepG2 cells (cytotoxicity). The assay is classed as cell-based. Conditions: read-out: Hs HepG2 PEC50 (converted). The text has this:
Assay Method for Measurement of In Vitro Inhibition of HepG2 Cells (Cytotoxicity)
These experiments were run in accordance with the method of Mersch-Sundermann V et. al. Toxicology 2004, 198:329-340

For another assay, the target named is PfLysRS (Plasmodium falciparum, UniProt Q8IDJ8). Conditions: Hoepfner et al, Cell Host Microbe, 2012; cited from earlier work.
Sequence of PfLysRS (Q8IDJ8 1-583): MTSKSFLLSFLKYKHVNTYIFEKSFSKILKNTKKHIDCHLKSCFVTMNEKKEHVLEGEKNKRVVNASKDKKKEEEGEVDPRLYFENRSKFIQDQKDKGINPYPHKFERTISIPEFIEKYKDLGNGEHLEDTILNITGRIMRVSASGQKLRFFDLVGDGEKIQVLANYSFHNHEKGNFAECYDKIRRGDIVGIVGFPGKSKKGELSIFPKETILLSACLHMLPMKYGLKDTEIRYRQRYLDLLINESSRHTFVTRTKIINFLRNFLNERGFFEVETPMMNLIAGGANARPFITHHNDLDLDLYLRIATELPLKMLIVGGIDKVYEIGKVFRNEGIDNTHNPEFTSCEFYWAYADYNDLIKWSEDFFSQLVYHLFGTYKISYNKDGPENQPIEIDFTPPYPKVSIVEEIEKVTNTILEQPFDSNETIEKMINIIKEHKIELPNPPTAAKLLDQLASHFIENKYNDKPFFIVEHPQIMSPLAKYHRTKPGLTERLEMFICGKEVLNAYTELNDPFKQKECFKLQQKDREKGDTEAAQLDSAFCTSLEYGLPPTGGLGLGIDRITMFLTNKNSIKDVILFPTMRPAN
The next assay relates to Cryptosporidium parvum. As to the kind of experiment: In vitro inhibition of Cryptosporidium (method of Bessoff et al.). Type of assay: cell-based. Conditions: read-out: C. parvum PEC50 (converted). The text has this:
Assay Method for Measurement of In Vitro Inhibition of Cryptosporidium
These experiments were run in accordance with the method of Besssoff et. al. Antimicrob. Agents Chemother. 2013, 57:1804-1814. Results from these experiments are provided in the Experimental Results hereinafter.

Sequence of Cryptosporidium parvum lysyl t-RNA synthetase (Cp KRS) (Q5CR27 entry or part of it): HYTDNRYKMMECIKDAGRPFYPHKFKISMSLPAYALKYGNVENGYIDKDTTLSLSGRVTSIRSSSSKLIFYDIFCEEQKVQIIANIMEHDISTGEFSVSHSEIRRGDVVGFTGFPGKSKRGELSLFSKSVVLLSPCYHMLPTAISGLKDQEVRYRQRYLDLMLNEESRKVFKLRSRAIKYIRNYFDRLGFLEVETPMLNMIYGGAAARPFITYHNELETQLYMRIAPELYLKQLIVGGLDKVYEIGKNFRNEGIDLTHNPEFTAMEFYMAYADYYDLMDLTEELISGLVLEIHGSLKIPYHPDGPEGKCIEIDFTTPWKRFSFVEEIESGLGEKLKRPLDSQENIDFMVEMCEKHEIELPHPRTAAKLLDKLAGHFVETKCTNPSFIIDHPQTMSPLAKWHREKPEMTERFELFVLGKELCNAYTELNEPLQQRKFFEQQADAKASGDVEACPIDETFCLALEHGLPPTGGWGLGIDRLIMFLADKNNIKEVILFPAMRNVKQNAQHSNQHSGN

For `CC(=O)Oc1ccccc1C(=O)Nc1ncc([N+](=O)[O-])s1` [Nitazoxanide], in the assay on Cryptosporidium, the “efficacy in clinical trials” value is listed as “ineffective”.

Consider `Nc1nc2c(c(C(F)(F)F)n1)C(=O)N(C[C@H]1CCC[C@H](C(F)(F)F)C1)C2` [Compound 7, 2-amino-4-(trifluoromethyl)-6-(((1S,3S)-3-(trifluoromethyl)cyclohexyl)methyl)-6,7-dihydro-5H-pyrrolo[3,4-d]pyrimidin-5-one], for which the IC50 was 15.8 µM in assay [1] and 63.1 µM in assay [2]. The EC50 in assay [3] is 79.4 µM.

On to `Nc1nc2c(c(C(F)(F)F)n1)C(=O)N(C[C@H]1CCC[C@@H](C(F)(F)F)C1)C2` [Compound 6, 2-amino-4-(trifluoromethyl)-6-(((1S,3R)-3-(trifluoromethyl)cyclohexyl)methyl)-6,7-dihydro-5H-pyrrolo[3,4-d]pyrimidin-5-one], for which the IC50 is above 50.1 µM in assay [1] and above 100 µM in assay [2]. Also, the EC50 in assay [3] is above 100 µM.

`C[C@H]1CCC[C@H](C[C@H]2Cc3cc(O)cc(O)c3C(=O)O2)O1` [Cladosporin, cladosporin]: on PfLysRS, the “selectivity for PfLysRS vs HsLysRS” value is given as “more than 100 fold”.

Consider `Nc1nc2c(c(C(F)(F)F)n1)C(=O)N(C[C@@H]1CCC[C@@H](C(F)(F)F)C1)C2` [Compound 5, 2-amino-4-(trifluoromethyl)-6-(((1R,3R)-3-(trifluoromethyl)cyclohexyl)methyl)-6,7-dihydro-5H-pyrrolo[3,4-d]pyrimidin-5-one], for which the IC50 was 1.58 µM in assay [1] and 20 µM in assay [2]. Also, the EC50 with Cryptosporidium parvum was 0.0501 µM; in assay [3] it was 15.8 µM.
